Consider 26 compounds from US12006321B2, “Substituted pyrazolo[1,5-a]pyrimidines as apelin receptor agonists” (Sanford Burnham Prebys Medical Discovery Institute, priority 2017, dated 2024).

The structures appear in SMILES notation. pEC50: −log10 of the molar value.

In the test the target is T1, human apelin receptor (APJ, APLNR) (Homo sapiens, UniProt P35414).
T1 construct: host or cells: Chinese hamster ovary (CHO) cells, stably integrated receptor
T1 sequence (P35414 1-380): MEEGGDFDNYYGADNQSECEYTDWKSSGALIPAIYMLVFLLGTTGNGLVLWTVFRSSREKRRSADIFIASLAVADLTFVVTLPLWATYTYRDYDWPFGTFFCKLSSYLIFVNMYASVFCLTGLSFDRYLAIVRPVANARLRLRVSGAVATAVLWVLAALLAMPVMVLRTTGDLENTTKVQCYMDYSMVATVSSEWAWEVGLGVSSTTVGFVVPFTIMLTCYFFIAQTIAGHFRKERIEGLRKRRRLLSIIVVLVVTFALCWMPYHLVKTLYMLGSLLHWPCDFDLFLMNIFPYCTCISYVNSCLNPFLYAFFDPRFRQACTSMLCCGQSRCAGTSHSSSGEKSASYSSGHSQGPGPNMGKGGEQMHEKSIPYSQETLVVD
The experiment in a line: cell-based cAMP assay (TR-FRET) in Chinese hamster ovary cells expressing the apelin receptor. The following applies: EC50 = 50% of control (apelin-13, 1 nM) response; cAMP in CHO cells, 0.5 h incubation; read-out: Potency Category. As for the experimental part:
This example illustrates the biological activity of various compounds tested against the APJ receptor.
Commercially available cell lines were used to screen chemical libraries to identify compounds that potently and selectively activated the human apelin receptor. The assays disclosed herein were performed using cell lines from DiscoveX, Inc.
Biological activity was determined to the cell-based assay. This assay detects activation of the receptor by reporting on intracellular cyclic adenosine monophosphate (cAMP) level. Chinese hamster ovary cells engineered to express the stably integrated human appellant receptor (APJ, AGTRL-one, APLNR), pleaded into the wells of the microtiter plate. Cells were stimulated with […] to increase intracellular cyclic AMP. Immediately following, compounds were added to the range of final concentrations 0.0-100 μM, in DMSO (not to exceed a final DMSO concentration greater than 1% v/v), and allowed to incubate with the cells for 0.5 h. At the end of the incubation, cells were lysed to stop APJ signaling and cAMP was quantified using a commercially available competitive immunoassay kit that applies homogenous time-resolved florescence energy transfer (TR-FRET). The assay is based on the competition between a europium (Eu) chelate-labeled cAMP donor tracer and cellular cAMP for binding sites on a cAMP-specific monoclonal antibody labeled with an acceptor fluorophore. When antibodies are bound to the cAMP tracer light emissions at 320 nm stimulate the energy transfer from the donor to the acceptor, which in turn emits light at 665 nm. In the presence of competitive unlabeled cAMP (derived from the activity of the receptor or forskolin-stimulated production of cAMP), the labelled cAMP tracer is dissociated from the cAMP antibody, resulting in a loss of FRET signal. The amount of light emitted by the FRET is inversely proportional to the cAMP generated by the cell/receptor system. Potency and efficacy at APJ are reported in reference to the canonical APJ receptor agonist apelin-13 when tested at 1 nM.
Compound competency is reported as the effective concentration required to effect 50% (EC 50) of the control (apelin—13, 1 nM) response in micromole are (μM) units. Compound efficacy (% response) is reported as a percentage of the maximal apein-13 response at 1 nM (control). Potencies were calculated by fitting a four-point logistic curve to concentration response consisting of at least 10 discrete data points spanning effective range of the compounds in the cell-based assay that measures cAMP. In Table 1, the Potency Categories are A, B, C and D. Category A EC50>500 nM; Category B 200<EC50<500 nM; Category C 100<EC50<200 nM; Category D<100 nM.
A general note: Cyclic AMP is a second messenger, typically raised through Gs and lowered through Gi signalling.
As to `COC(=O)c1cc(N2CCCCC2)n2nc(C)c(-c3c(C)cccc3C)c2n1` [Compound 124, methyl 3-(2,6-dimethylphenyl)-2-methyl-7-piperidyl-8-hydropyrazolo[1,5-a]pyrimidine-5-carboxylate], the pEC50 was less than 6.30.

For `Cc1cccc(C)c1-c1c(C)nn2c(N3CCOCC3)cc(C(=O)O)nc12` [Compound 98, 3-(2,6-dimethylphenyl)-2-methyl-7-morpholin-4-yl-8-hydropyrazolo[1,5-a]pyrimidine-5-carboxylic acid], the pEC50 was less than 6.30.

For `CCc1nn2c(C(C)C)cc(C(=O)O)nc2c1-c1ccccc1` [Compound 13, 2-ethyl-7-(methylethyl)-3-phenyl-8-hydropyrazolo[1,5-a]pyrimidine-5-carboxylic acid], the pEC50 is less than 6.30.

Consider `Cc1cccc(C)c1-c1c(C)nn2c(Nc3ccc(C(F)(F)F)cc3)cc(C(=O)O)nc12` [Compound 143, 3-(2,6-dimethylphenyl)-2-methyl-7-{[4-(trifluoromethyl)phenyl]amino}-8-hydropyrazolo[1,5-a]pyrimidine-5-carboxylic acid], for which the pEC50 is less than 6.30.

Regarding `CCOC(=O)c1cc(C(C)C)n2nc(C)c(-c3c(OC)cccc3OC)c2n1` [Compound 40, ethyl 3-(2,6-dimethoxyphenyl)-2-methyl-7-(methylethyl)-8-hydropyrazolo[1,5-a]pyrimidine-5-carboxylate], the pEC50 is less than 6.30.

As for `CNc1cc(C(=O)O)nc2c(-c3c(C)cccc3C)c(C)nn12` [Compound 102, 3-(2,6-dimethylphenyl)-2-methyl-7-(methylamino)-8-hydropyrazolo[1,5-a]pyrimidine-5-carboxylic acid], the pEC50 was less than 6.30.

`CCOC(=O)c1cc(C(C)C)n2nc(C)c(-c3c(C)cccc3Cl)c2n1` [Compound 94, ethyl 3-(6-chloro-2-methylphenyl)-2-methyl-7-(methylethyl)-8-hydropyrazolo[1,5-a]pyrimidine-5-carboxylate]: the pEC50 was less than 6.30.

Regarding `Cc1cccc(C)c1-c1c(C)nn2c(C(C)C)cc(C(=O)NO)nc12` [Compound 75, 3-(2,6-dimethylphenyl)-2-methyl-7-(methylethyl)-8-hydropyrazolo[1,5-a]pyrimidine-5-carbohydroxamic acid], the pEC50 was 6.70 to 7.00.

On to `Cc1cccc(C)c1-c1c(C(=O)O)nn2c(C(C)C)cc(C(=O)O)nc12` [Compound 96, 3-(2,6-dimethylphenyl)-7-(methylethyl)-8-hydropyrazolo[1,5-a]pyrimidine-2,5-dicarboxylic acid], for which the pEC50 was less than 6.30.

Consider `COc1cccc(Cl)c1-c1c(C)nn2c(C(C)C)cc(C(=O)O)nc12` [Compound 119, 3-(6-chloro-2-methoxyphenyl)-2-methyl-7-(methylethyl)-8-hydropyrazolo[1,5-a]pyrimidine-5-carboxylic acid], for which the pEC50 is less than 6.30.

As to `Cc1cccc(C)c1-c1c(C)nn2c(N3CCCC3)cc(C(=O)O)nc12` [Compound 123, 3-(2,6-dimethylphenyl)-2-methyl-7-pyrrolidinyl-8-hydropyrazolo[1,5-a]pyrimidine-5-carboxylic acid], the pEC50 is less than 6.30.

In the case of `CCCN(C)c1cc(C(=O)O)nc2c(-c3c(C)cccc3C)c(C)nn12` [Compound 153, 3-(2,6-dimethylphenyl)-2-methyl-7-(methylpropylamino)-8-hydropyrazolo[1,5-a]pyrimidine-5-carboxylic acid], the pEC50 is less than 6.30.

Regarding `CCOC(=O)c1cc(C(C)C)n2nc(C)c(-c3c(C)cccc3OC)c2n1` [Compound 65, ethyl 3-(6-methoxy-2-methylphenyl)-2-methyl-7-(methylethyl)-8-hydropyrazolo[1,5-a]pyrimidine-5-carboxylate], the pEC50 was less than 6.30.

As to `Cc1cccc(C)c1-c1c(C)nn2c(-c3ccco3)cc(C(=O)O)nc12` [Compound 156, 3-(2,6-dimethylphenyl)-7-(2-furyl)-2-methyl-8-hydropyrazolo[1,5-a]pyrimidine-5-carboxylic acid], the pEC50 is less than 6.30.

As to `Cc1cccc(C)c1-c1c(C2CCC2)nn2c(C(C)C)cc(C(=O)O)nc12` [Compound 81, 3-(2,6-dimethylphenyl)-2-cyclobutyl-7-(methylethyl)-8-hydropyrazolo[1,5-a]pyrimidine-5-carboxylic acid], the pEC50 was less than 6.30.

For `Cc1cccc(C)c1-c1c(C)nn2c(C3CCCCC3)cc(C(=O)O)nc12` [Compound 155, 3-(2,6-dimethylphenyl)-7-cyclohexyl-2-methyl-8-hydropyrazolo[1,5-a]pyrimidine-5-carboxylic acid], the pEC50 is less than 6.30.

As to `Cc1cccc(C)c1-c1c(C)nn2c(C3=CCNCC3)cc(C(=O)O)nc12` [Compound 158, 3-(2,6-dimethylphenyl)-2-methyl-7-(4-1,2,5,6-tetrahydropyridyl)-8-hydropyrazolo[1,5-a]pyrimidine-5-carboxylic acid], the pEC50 was less than 6.30.

In the case of `CCOC(=O)c1cc(C(C)C)n2nc(C)c(-c3cccc(Cl)c3)c2n1` [Compound 30, ethyl 3-(3-chlorophenyl)-2-methyl-7-(methylethyl)-8-hydropyrazolo[1,5-a]pyrimidine-5-carboxylate], the pEC50 was less than 6.30.

For the compound `COC(=O)c1cc(Nc2ccc(C#N)cc2)n2nc(C)c(-c3c(C)cccc3C)c2n1` [Compound 138, methyl 3-(2,6-dimethylphenyl)-7-[(4-cyanophenyl)amino]-2-methyl-8-hydropyrazolo[1,5-a]pyrimidine-5-carboxylate], the pEC50 was less than 6.30.

Turning to `Cc1nn2c(C(C)C)cc(C(N)=O)nc2c1-c1ccccc1` [Compound 14, 2-methyl-7-(methylethyl)-3-phenyl-8-hydropyrazolo[1,5-a]pyrimidine-5-carboxamide], the pEC50 is less than 6.30.

Consider `CCOC(=O)c1cc(N2CCOCC2)n2nc(C)c(-c3c(C)cccc3C)c2n1` [Compound 97, ethyl 3-(2,6-dimethylphenyl)-2-methyl-7-morpholin-4-yl-8-hydropyrazolo[1,5-a]pyrimidine-5-carboxylate], for which the pEC50 is less than 6.30.

For the compound `COC(=O)c1cc(N(C)c2ccccc2)n2nc(C)c(-c3c(C)cccc3C)c2n1` [Compound 146, methyl 3-(2,6-dimethylphenyl)-2-methyl-7-(methylphenylamino)-8-hydropyrazolo[1,5-a]pyrimidine-5-carboxylate], the pEC50 was less than 6.30.

`CCOC(=O)c1cc(C2CCC2)n2nc(C)c(-c3c(C)cccc3C)c2n1` [Compound 60, ethyl 3-(2,6-dimethylphenyl)-7-cyclobutyl-2-methyl-8-hydropyrazolo[1,5-a]pyrimidine-5-carboxylate]: the pEC50 is less than 6.30.

Consider `COc1ccc(Nc2cc(C(=O)O)nc3c(-c4c(C)cccc4C)c(C)nn23)cc1` [Compound 142, 3-(2,6-dimethylphenyl)-7-[(4-methoxyphenyl)amino]-2-methyl-8-hydropyrazolo[1,5-a]pyrimidine-5-carboxylic acid], for which the pEC50 is less than 6.30.

For `Cc1cccc(C)c1-c1c(C)nn2c(N3CCCCC3)cc(C(=O)O)nc12` [Compound 125, 3-(2,6-dimethylphenyl)-2-methyl-7-piperidyl-8-hydropyrazolo[1,5-a]pyrimidine-5-carboxylic acid], the pEC50 was less than 6.30.

Regarding `COc1cccc(OC)c1-c1c(C)nn2c(C(C)C)cc(C(=O)O)nc12` [Compound 42, 3-(2,6-dimethoxyphenyl)-2-methyl-7-(methylethyl)-8-hydropyrazolo[1,5-a]pyrimidine-5-carboxylic acid], the pEC50 is less than 6.30.
